Experimental data as given in ChEMBL document CHEMBL3784999, “Investigation of 4-amino-5-alkynylpyrimidine-2(1H)-ones as anti-mycobacterial agents” (Bioorg Med Chem, 2016).
Converted amounts (≈) assume the structure as drawn. The source made the active and inactive calls. No cut-off for these calls is given here.

Experiments:
Mus musculus [1] = experiment: Toxicity in BALB/c mouse infected with Mycobacterium tuberculosis H37Ra assessed as weight loss at 6.25 to 25 mg/kg, po administered for 2 weeks started on day 4 post bacterial infection in presence of isoniazid; format: organism-based; details: in vivo, 336 h
[2] = test system: Mycobacterium tuberculosis; experiment: Antimycobacterial activity against Mycobacterium tuberculosis H37Ra assessed as inhibition of mycobacterial replication at 200 ug/ml after 6 days by microplate Alamar blue assay; format: functional; details: 144 h
Mus musculus [3] = experiment: Toxicity in BALB/c mouse infected with Mycobacterium tuberculosis H37Ra assessed as behavioral changes at 6.25 to 25 mg/kg, po administered for 2 weeks started on day 4 post bacterial infection; format: organism-based; details: in vivo, 336 h
Mus musculus [4] = experiment: Toxicity in BALB/c mouse infected with Mycobacterium tuberculosis H37Ra assessed as change in amylase level in serum at 6.25 to 25 mg/kg, po administered for 2 weeks started on day 4 post bacterial infection; format: organism-based; details: in vivo, 336 h
Mus musculus [5] = experiment: Toxicity in BALB/c mouse infected with Mycobacterium tuberculosis H37Ra assessed as change in creatinine level in serum at 6.25 to 25 mg/kg, po administered for 2 weeks started on day 4 post bacterial infection in presence of isoniazid; format: organism-based; details: in vivo, 336 h
[6] = test system: Mycobacterium tuberculosis; experiment: Antimycobacterial activity against Mycobacterium tuberculosis H37Ra assessed as inhibition of mycobacterial replication at 100 ug/ml after 6 days by microplate Alamar blue assay; format: functional; details: 144 h
[7] = test system: Mycobacterium tuberculosis; experiment: Antimycobacterial activity against Mycobacterium tuberculosis H37Ra infected in BALB/c mouse assessed as reduction of bacterial load in spleen at 25 mg/kg, po administered for 2 weeks started on day 4 post bacterial infection measured 3 days post last dose; format: functional
Mus musculus [8] = experiment: Toxicity in BALB/c mouse infected with Mycobacterium tuberculosis H37Ra assessed as change in phosphate level in serum at 6.25 to 25 mg/kg, po administered for 2 weeks started on day 4 post bacterial infection; format: organism-based; details: in vivo, 336 h
[9] = test system: Mycobacterium tuberculosis; experiment: Antimycobacterial activity against Mycobacterium tuberculosis H37Ra infected in BALB/c mouse assessed as reduction of bacterial load in liver at 6.25 to 6.25 mg/kg, po administered for 2 weeks started on day 4 post bacterial infection measured 3 days post last dose; format: functional, organism-based
[10] = test system: Mycobacterium tuberculosis; experiment: Antimycobacterial activity against Mycobacterium tuberculosis H37Ra infected in BALB/c mouse assessed as reduction of bacterial load in liver at 25 mg/kg, po administered for 2 weeks started on day 4 post bacterial infection measured 3 days post last dose; format: functional
[11] = test system: Mycobacterium tuberculosis; experiment: Antimycobacterial activity against Mycobacterium tuberculosis H37Ra infected in BALB/c mouse assessed as reduction of bacterial load in spleen at 6.25 to 6.25 mg/kg, po administered for 2 weeks started on day 4 post bacterial infection measured 3 days post last dose; format: functional, organism-based
[12] = test system: Mycobacterium tuberculosis; experiment: Antimycobacterial activity against Mycobacterium tuberculosis H37Ra assessed as inhibition of mycobacterial replication at 6.25 ug/ml after 6 days by microplate Alamar blue assay in presence of isoniazid; format: functional; details: 144 h
[13] = test system: Mycobacterium tuberculosis; experiment: Antimycobacterial activity against Mycobacterium tuberculosis H37Ra infected in BALB/c mouse assessed as reduction of bacterial load in lung at 12.5 mg/kg, po administered for 2 weeks started on day 4 post bacterial infection measured 3 days post last dose co-treated with 1 mg/kg, po isoniazid; format: functional
[14] = test system: Mycobacterium tuberculosis; experiment: Antimycobacterial activity against Mycobacterium tuberculosis H37Ra infected in BALB/c mouse assessed as reduction of bacterial load in lung at 25 mg/kg, po administered for 2 weeks started on day 4 post bacterial infection measured 3 days post last dose; format: functional
Mus musculus [15] = experiment: Toxicity in BALB/c mouse infected with Mycobacterium tuberculosis H37Ra at 6.25 to 25 mg/kg, po administered for 2 weeks started on day 4 post bacterial infection by necroscopy; format: organism-based; details: in vivo, 336 h
[16] = test system: Mycobacterium tuberculosis; experiment: Antimycobacterial activity against Mycobacterium tuberculosis H37Ra infected in BALB/c mouse assessed as reduction of bacterial load in liver at 12.5 mg/kg, po administered for 2 weeks started on day 4 post bacterial infection measured 3 days post last dose co-treated with 1 mg/kg, po isoniazid; format: functional
[17] = test system: Mycobacterium tuberculosis; experiment: Antimycobacterial activity against Mycobacterium tuberculosis H37Ra assessed as inhibition of mycobacterial replication at 50 ug/ml after 6 days by microplate Alamar blue assay; format: functional; details: 144 h
Mus musculus [18] = experiment: Toxicity in BALB/c mouse infected with Mycobacterium tuberculosis H37Ra assessed as change in cholesterol level in serum at 6.25 to 25 mg/kg, po administered for 2 weeks started on day 4 post bacterial infection; format: organism-based; details: in vivo, 336 h
[19] = test system: Mycobacterium tuberculosis; experiment: Ratio MIC90 for Mycobacterium tuberculosis H37Ra in presence of isoniazid to MIC90 for Mycobacterium tuberculosis H37Ra in absence of isoniazid; format: functional
[20] = test system: Mycobacterium tuberculosis; experiment: Antimycobacterial activity against Mycobacterium tuberculosis H37Ra assessed as inhibition of mycobacterial replication at 25 ug/ml after 6 days by microplate Alamar blue assay; format: functional; details: 144 h
Mus musculus [21] = experiment: Toxicity in BALB/c mouse infected with Mycobacterium tuberculosis H37Ra assessed as change in cholesterol level in serum at 6.25 to 25 mg/kg, po administered for 2 weeks started on day 4 post bacterial infection in presence of isoniazid; format: organism-based; details: in vivo, 336 h
Mus musculus [22] = experiment: Toxicity in BALB/c mouse infected with Mycobacterium tuberculosis H37Ra assessed as change in calcium level in serum at 6.25 to 25 mg/kg, po administered for 2 weeks started on day 4 post bacterial infection; format: organism-based; details: in vivo, 336 h
[23] = test system: Mycobacterium tuberculosis; experiment: Antimycobacterial activity against Mycobacterium tuberculosis H37Ra infected in BALB/c mouse assessed as reduction in bacterial activity in lung at 6.25 mg/kg, po administered for 2 weeks started on day 4 post bacterial infection measured 3 days post last dose co-treated with 1 mg/kg, po isoniazid; format: functional
Mus musculus [24] = experiment: Toxicity in BALB/c mouse infected with Mycobacterium tuberculosis H37Ra assessed as gross necroscopy changes at 6.25 to 25 mg/kg, po administered for 2 weeks started on day 4 post bacterial infection; format: organism-based; details: in vivo, 336 h
Mus musculus [25] = experiment: Toxicity in BALB/c mouse infected with Mycobacterium tuberculosis H37Ra assessed as change in urea level in serum at 6.25 to 25 mg/kg, po administered for 2 weeks started on day 4 post bacterial infection; format: organism-based; details: in vivo, 336 h
Mus musculus [26] = experiment: Toxicity in BALB/c mouse infected with Mycobacterium tuberculosis H37Ra assessed as weight loss at 6.25 to 25 mg/kg, po administered for 2 weeks started on day 4 post bacterial infection; format: organism-based; details: in vivo, 336 h
[27] = test system: Mycobacterium tuberculosis; experiment: Antimycobacterial activity against Mycobacterium tuberculosis H37Ra infected in BALB/c mouse assessed as reduction in bacterial activity in spleen at 6.25 mg/kg, po administered for 2 weeks started on day 4 post bacterial infection measured 3 days post last dose co-treated with 1 mg/kg, po isoniazid; format: functional
[28] = Cytotoxicity against African green monkey Vero cells assessed as cell viability after 3 days by XTT assay; format: cell-based; details: chlorocebus sabaeus
Mus musculus [29] = experiment: Toxicity in BALB/c mouse infected with Mycobacterium tuberculosis H37Ra assessed as change in phosphate level in serum at 6.25 to 25 mg/kg, po administered for 2 weeks started on day 4 post bacterial infection in presence of isoniazid; format: organism-based; details: in vivo, 336 h
[30] = test system: Mycobacterium tuberculosis; experiment: Antimycobacterial activity against Mycobacterium tuberculosis H37Ra assessed as inhibition of mycobacterial replication at 6.25 ug/ml after 6 days by microplate Alamar blue assay in absence of isoniazid; format: functional, organism-based
Mus musculus [31] = experiment: Toxicity in BALB/c mouse infected with Mycobacterium tuberculosis H37Ra assessed as behavioral changes at 6.25 to 25 mg/kg, po administered for 2 weeks started on day 4 post bacterial infection in presence of isoniazid; format: organism-based; details: in vivo, 336 h
Mus musculus [32] = experiment: Toxicity in BALB/c mouse infected with Mycobacterium tuberculosis H37Ra assessed as change in alkaline phosphatase level in serum at 6.25 to 25 mg/kg, po administered for 2 weeks started on day 4 post bacterial infection; format: organism-based; details: in vivo, 336 h
Mus musculus [33] = experiment: Toxicity in BALB/c mouse infected with Mycobacterium tuberculosis H37Ra assessed as change in creatinine level in serum at 6.25 to 25 mg/kg, po administered for 2 weeks started on day 4 post bacterial infection; format: organism-based; details: in vivo, 336 h
[34] = test system: Mycobacterium tuberculosis; experiment: Antimycobacterial activity against Mycobacterium tuberculosis H37Ra assessed as inhibition of mycobacterial replication after 6 days by microplate Alamar blue assay; format: functional; details: 144 h
[35] = test system: Mycobacterium tuberculosis; experiment: Antimycobacterial activity against Mycobacterium tuberculosis H37Ra infected in BALB/c mouse assessed as reduction of bacterial load in spleen at 12.5 mg/kg, po administered for 2 weeks started on day 4 post bacterial infection measured 3 days post last dose co-treated with 1 mg/kg, po isoniazid; format: functional
[36] = test system: Mycobacterium tuberculosis; experiment: Antimycobacterial activity against Mycobacterium tuberculosis H37Ra infected in BALB/c mouse assessed as reduction of bacterial load in lung at 6.25 to 6.25 mg/kg, po administered for 2 weeks started on day 4 post bacterial infection measured 3 days post last dose; format: functional, organism-based
Mus musculus [37] = experiment: Toxicity in BALB/c mouse infected with Mycobacterium tuberculosis H37Ra assessed as change in urea level in serum at 6.25 to 25 mg/kg, po administered for 2 weeks started on day 4 post bacterial infection in presence of isoniazid; format: organism-based; details: in vivo, 336 h
Mus musculus [38] = experiment: Toxicity in BALB/c mouse infected with Mycobacterium tuberculosis H37Ra assessed as change in calcium level in serum at 6.25 to 25 mg/kg, po administered for 2 weeks started on day 4 post bacterial infection in presence of isoniazid; format: organism-based; details: in vivo, 336 h
Mus musculus [39] = experiment: Toxicity in BALB/c mouse infected with Mycobacterium tuberculosis H37Ra assessed as change in amylase level in serum at 6.25 to 25 mg/kg, po administered for 2 weeks started on day 4 post bacterial infection in presence of isoniazid; format: organism-based; details: in vivo, 336 h
Mus musculus [40] = experiment: Toxicity in BALB/c mouse infected with Mycobacterium tuberculosis H37Ra assessed as change in alkaline phosphatase level in serum at 6.25 to 25 mg/kg, po administered for 2 weeks started on day 4 post bacterial infection in presence of isoniazid; format: organism-based; details: in vivo, 336 h
Mus musculus [41] = experiment: Toxicity in BALB/c mouse infected with Mycobacterium tuberculosis H37Ra at 6.25 to 25 mg/kg, po administered for 2 weeks started on day 4 post bacterial infection by necroscopy in presence of isoniazid; format: organism-based; details: in vivo, 336 h

Compound: CCCCCC#Cc1c[nH]c(=O)nc1N
- Activity (Mus musculus [1]): Non-toxic
- inhibition at 200 µg/mL [2]: 100%
- Activity (Mus musculus [3]): Non-toxic
- Activity (Mus musculus [4]): Non-toxic
- Activity (Mus musculus [5]): Non-toxic
- inhibition at 100 µg/mL [6]: 100%
- inhibition in vivo at 25 mg/kg [7]: 51%
- Activity (Mus musculus [8]): Non-toxic
- Activity [9]: inactive
- inhibition in vivo at 25 mg/kg [10]: 50%
- Activity [11]: inactive
- inhibition at 6.25 µg/mL [12]: 100%
- inhibition (INH) [13]: 95%
- inhibition in vivo at 25 mg/kg [14]: 79%
- Activity (Mus musculus [15]): Non-toxic
- inhibition (INH) [16]: 96%
- inhibition at 50 µg/mL [17]: 100%
- Activity (Mus musculus [18]): Non-toxic
- fractional inhibitory concentration index (FICI) [19]: 0.37
- inhibition at 25 µg/mL [20]: 90%
- Activity (Mus musculus [21]): Non-toxic
- Activity (Mus musculus [22]): Non-toxic
- inhibition (INH) [23]: 70%
- Activity (Mus musculus [24]): Non-toxic
- Activity (Mus musculus [25]): Non-toxic
- Activity (Mus musculus [26]): Non-toxic
- inhibition (INH) [27]: 40%
- CC50 at 72 h [28]: > 200 µg/mL
- Activity (Mus musculus [29]): Non-toxic
- inhibition [30]: inactive
- Activity (Mus musculus [31]): Non-toxic
- Activity (Mus musculus [32]): Non-toxic
- Activity (Mus musculus [33]): Non-toxic
- MIC50 [34]: 12.5 µg/mL (≈ 60.9 µM)
- inhibition (INH) [35]: 70%
- Activity [36]: inactive
- Activity (Mus musculus [37]): Non-toxic
- Activity (Mus musculus [38]): Non-toxic
- Activity (Mus musculus [39]): Non-toxic
- Activity (Mus musculus [40]): Non-toxic
- Activity (Mus musculus [41]): Non-toxic

Compound: CCCCCCCCCCCC#Cc1c[nH]c(=O)nc1N
- CC50 at 72 h [28]: > 200 µg/mL
